Patent publication US20230263797A1, “Mammalian Hybrid Pre-Autophagosomal Structure HyPAS and Compositions and Methods for the Treatment of Coronavirus Infections and Related Disease States” (UNM Rainforest Innovations, priority 2021, published 2023)

Experiments:
[1] = tested on: HyPAS formation; test: High content microscopy (HCM) quantification of HyPAS formation (overlap between FIP200 and FLAG-ATG16L1); assay type: cell-based, human
Method: (§1) HCM was performed as described previously (Kumar et al., 2019). Cells were stimulated for autophagy by incubating in EBSS for 2 h followed by fixation with 4% paraformaldehyde for 5 mins. Cells were permeabilized with 0.1% saponin and blocked in 3% BSA for 30 mins followed by incubation with primary antibody for 6 h and secondary antibody for 1 h. High content microscopy with automated image acquisition and quantification was carried out using a Cellomics HCS scanner and iDEV software (Thermo) in 96-well plates (Kumar et al., 2019). For HCM experiments >500 primary objects were counted per well, minimum 6 wells were counted per experiments and data presented in figures are derived from at least 3 independent experiments.
Immunofluorescence confocal microscopy was carried out as described previously (Kumar et al., 2019). Briefly, cells were plated onto coverslips in 6 well or 12-well plates. Transfected cells were incubated in full media or EBSS (Earle's Balanced Salt Solution) for 2 h and fixed in 4% paraformaldehyde for 10 min followed by permeabilization with 0.1% saponin in 3% BSA. Cells were blocked 3% BSA and then incubated with primary antibodies for 4 h. Cells were washed three times with PBS and then incubated with appropriate secondary antibodies (Invitrogen) for 1 h at room temperature. Coverslips were then mounted using ProLong Gold Antifade Mountant (Invitrogen) and analyzed by confocal microscopy using the Zeiss LSM510 Laser Scanning Microscope.

[2] = tested on: LC3-ATG16L1 overlap in HeLa cells; test: HCM colocalization between FLAG-ATG16L1 and LC3 (LAP-like noncanonical autophagy); assay type: cell-based, human; conditions: WT or STX17KO HeLa cells; monensin 100 μM for 1 h
Method: as §1, with “Cells were stimulated for autophagy by incubating in EBSS for 2 h followed by fixation with 4% paraformaldehyde for 5 mins.” left out

[3] = tested on: HyPAS formation in vitro (GFP-FIP200 and mCherry-ATG16L1 membranes); test: In vitro fusion ivitHC assay between GFP-FIP200 and mCherry-ATG16L1 membranes; assay type: biochemical; conditions: vesicles from cells induced for autophagy; BAPTA used at 20 μM
Method: 293A WT or SIGMAR1^KO cells were plated in 96 well plates and transfected with indicated Keima plasmids. Cells were incubated in full media or induced for autophagy by incubating with EBSS for 8 h. Cells were then incubated in full media and incubated with Hoechst 33342 for ten minutes in full media and then acquired for Keima fluorescence at 440 nm and 560 nm using the Cell Insight CX7 High-Content Screening (HCS) Platform (Thermo)(Kumar et al., 2019). In Vitro Fusion ivitHC Assay In vitro fusion assay was developed for HCM platform by modifying a previously described assay (Matsui et al., 2018a; Moreau et al., 2011). […]
One hypothesis that emerged from the above studies is that FIP200 and ATG16L1 represent two precursor membranes with STX17 facilitating heterotypic fusion between them early in autophagy. […] This method mixes vesicles from different cells expressing green (GFP-FIP200) and red (mCherry-ATG16L1) markers and after addition of an ATP and ATP-regenerating system vesicle fusion is monitored by fluorescence microscopy. We adapted this to permit HCM quantification allowing highly powered analyses and termed it IvitHC (in vitro fusion high content assay) (FIG. 2A). […]

[4] = tested on: STX17 and E-SYT2 interactions; test: Co-IP analysis of interactions of STX17 with E-SYT2 in 293T cells; assay type: cell-based; conditions: CQ treatment
Method: (§2) Immunoblotting and co-immunoprecipitation (co-IP) were performed as described previously (Kumar et al., 2018). For co-IP, cells were transfected with 10 μg of plasmids, wherever stated, and lysed in NP-40 buffer containing protease inhibitor cocktail (Roche, cat #11697498001) and PMSF (Sigma, cat #93482). Lysates were mixed with 5 μg antibody and incubated at 4° C. for overnight followed by incubation with Dynabeads protein G (Life Technologies) for 4 h, at 4° C. Beads were washed three times with PBS and then boiled with SDS-PAGE buffer for analysis of interacting protein by immunoblotting.

[5] = tested on: STX17 and SERCA2 interactions; test: Co-IP analysis of interactions of STX17 with SERCA2 in 293T cells; assay type: cell-based; conditions: CQ treatment
Method: as §2

SMILES: C/C=C(/C)C(=O)O[C@H]1C(C)=C2[C@H]([C@@H]1OC(=O)CCCCCCC)[C@@](C)(OC(C)=O)C[C@H](OC(=O)CCC)[C@@]1(O)[C@H]2OC(=O)[C@@]1(C)O [TG, thapsigargin]
- Effect of TG on HyPAS formation ([1]; STX17KO HeLa cells): abrogated
- HyPAS formation ([1]; WT HeLa cells, basal conditions, thapsigargin treatment): increased

SMILES: CC[C@@]1([C@@H]2O[C@@H]([C@H]3O[C@@](O)(CO)[C@H](C)C[C@@H]3C)C[C@@H]2C)CC[C@H]([C@]2(C)CC[C@]3(C[C@H](O)[C@@H](C)[C@@H]([C@@H](C)[C@@H](OC)[C@H](C)C(=O)O)O3)O2)O1 [monensin]
- LC3-ATG16L1 overlap, as a measure of LAP-like noncanonical autophagy [2]: increase

SMILES: COc1ccc(CCN2CCN(CCCc3ccccc3)CC2)cc1OC [cutamesine]
- HyPAS formation ([1]; cells grown in full medium, 100 nM for 2 h): induced

SMILES: CN(C)CCN(C)CCc1ccc(Cl)c(Cl)c1 [BD1047, BD-1047]
- HyPAS formation induced by starvation ([1]; HeLa cells induced for autophagy (EBSS, 2 h), 10 μM for 1 h): inhibited

SMILES: CCN(CC)CCCC(C)Nc1ccnc2cc(Cl)ccc12 (stereo not shown) [CQ, chloroquine]
- HyPAS formation in vitro (IvitHC) [3]: inhibited
- STX17 and E-SYT2 interactions (co-IP) [4]: inhibited
- STX17 and SERCA2 interactions (co-IP) [5]: did not inhibit

SMILES: CC(=O)OCOC(=O)CN(CC(=O)OCOC(C)=O)c1ccccc1OCCOc1ccccc1N(CC(=O)OCOC(C)=O)CC(=O)OCOC(C)=O [BAPTA-AM]
- HyPAS formation ([1]; STX17KO HeLa cells, starvation-induced autophagy, BAPTA-AM treatment): did not further affect
- HyPAS formation ([1]; WT HeLa cells, starvation-induced autophagy (EBSS, 2 h), BAPTA-AM treatment): reduced
